Source: the NIST ThermoML archive (doi:10.1016/j.jct.2012.04.015)
Numbers after ± are expanded uncertainties.

Experiments:
[1] = 101.33 kPa, Liquid, Vibrating tube method
[2] = refractive index (Na D-line) (dimensionless); conditions: 101.33 kPa, Liquid, Standard Abbe refractometry

Structure (SMILES)	mass density ([1]; 298.15 K)	refractive index ([2]; 298.15 K)	mass density ([1]; 303.15 K)	refractive index ([2]; 303.15 K)
CCCCCC[n+]1ccn(C)c1.O=S(=O)([N-]S(=O)(=O)C(F)(F)F)C(F)(F)F	1371.99 ± 0.55 kg/m3	1.43016 ± 0.00037	–	–
CCCCn1cc[n+](C)c1.O=S(=O)([O-])C(F)(F)F [1-butyl-3-methylimidazolium trifluoromethanesulfonate]	1303.63 ± 0.49 kg/m3	1.43895 ± 0.00037	–	–
CCCCCCn1cc[n+](C)c1.O=S(=O)([O-])C(F)(F)F [1-hexyl-3-methylimidazolium trifluoromethanesulfonate]	–	–	1232.55 ± 0.43 kg/m3	1.43926 ± 0.00037
C1CCCCC1 [cyclohexane]	773.88 ± 0.13 kg/m3	1.42356 ± 0.00031	–	–
CCCCCCC [heptane]	679.57 ± 0.18 kg/m3	1.38529 ± 0.00033	–	–
Cc1ccccc1 [toluene]	862.23 ± 0.1 kg/m3	1.49398 ± 0.00031	–	–
